The values that follow come from patent US5519016A, “Aryl group- or aromatic heterocyclic group-substituted aminoquinolone derivatives and anti-HIV agent” (priority 1992, dated 1996).

≈ marks a conversion by molar mass, not a printed value. Where a name gives a salt, the structure may show the parent alone. Read-outs that look alike come from different tables or passages of the source.

Usually EC50 stands for the midpoint of the concentration-response curve. High values mean lower potency in that assay, low ones higher potency in that assay.

Data set [1] concerns HIV. The data set can be described thus: microbe, parasite or virus in culture. Type of data set: cell-based. The note with it: for S.I. (selective index, CC50 /EC50): CC50 = 50% growth inhibition of non-infected cells, 7200 min; for EC50: Human immunodeficiency virus 1, MT4, 120 h, 50% CPE inhibition in HIV infected MT-4 cells, 5 days, 37° C. The source says:
Exponentially growing MT-4 cells were centrifuged, and the pellets were resuspended in RPMI-1640 medium containing 10% fetal serum (serum medium). Portions of the cell suspension were either inoculated with HIV, or left uninfected. Serum medium was then further added to the suspensions, which were then washed and centrifuged. The resulting pellets were then suspended in serum medium to a concentration of 4×10^5 cells/mi. Preparations of the test compound (in serum medium) were […] in a stepwise manner, and 100 μl of each of the solutions were placed in separated wells of a 96-well plastic microtitre plate. 100 μl of each of the cell suspensions (infected and non-infected) were then added to the wells, so that each dilution of each of the test compounds was tested against both infected and noninfected cells. Blanks (not added either of the cells) were also prepared. The preparations were then cultured by standing the plate at 37° C. for 5 days in the presence of 5 % carbon dioxide gas.
At the end of this time, living cells were assayed for CPE inhibitory activity by the spectrophotometric assay of the blue formazan produced by the reduction of MTT [3-(4,5-dimethylthiazol-2-yl) -2,5-diphenyl-tetrazolium bromide]which was added to the preparations.
CPE inhibitory activity was defined as 100% in non-infected cells to which no test compounds had been added, while CPE inhibitory activity was defined as 0% in infected cells to which test compounds had not been added.

For data set [2], the system named is HIV. Conditions: literature / WO-A-90-13542; cited from earlier work.

With `O=C(O)c1cn(C2CC2)c2cc(N3CCNCC3)c(F)cc2c1=O` [Ciprofloxacin, reference compound], the “anti-HIV activity (in words)” value in the data set on HIV [1] was “little or no anti-HIV activity”. For the same compound, the “anti-HIV activity (reported)” value in the data set with HIV [2] is listed as “anti-HIV activity”.
In the case of `C[C@H]1COc2c(N3CCN(C)CC3)c(F)cc3c(=O)c(C(=O)O)cn1c23` [DR-3355, reference compound], the “anti-HIV activity (in words)” value in the data set with HIV [1] (Pauwel method) is “have failed”. The “anti-HIV activity (reported)” value with HIV [2] is listed as “Anti-HIV activity has recently been reported”.
In the case of `CN1CCN(c2cc3c(cc2F)c(=O)c(C(=O)O)cn3-c2ccc(F)cc2)CC1` [Difloxacin, reference compound], the “anti-HIV activity (in words)” value with HIV [1] (Pauwel method) is listed as “little or no anti-HIV activity”. Moreover, the “anti-HIV activity (reported)” value with HIV [2] was “anti-HIV activity”.
Take `CCn1cc(C(=O)O)c(=O)c2cc(F)c(N3CCNCC3)nc21` [Enoxacin, reference compound]: the “anti-HIV activity (in words)” value in the data set on HIV [1] (Pauwel method) is given as “little or no anti-HIV activity”. The “anti-HIV activity (reported)” value with HIV [2] is recorded as “anti-HIV activity”.
As for `COc1ccccc1N1CCN(c2c(F)cc3c(=O)c(C(=O)O)cn(C4CC4)c3c2OC(F)F)CC1` [Example 1, 1-cyclopropyl-6-fluoro-8-difluoromethoxy-7-[4-(2-methoxyphenyl)piperazin-1-yl]-1,4-dihydro-4-oxoquinoline-3-carboxylic acid.hydrochloride], in the data set with HIV [1], the “S.I. (selective index, CC50 /EC50)” value is listed as 400 and a half-maximal response (EC50) required 0.015 µg/mL.
`O=C(O)c1cn(C2CC2)c2c(OC(F)F)c(N3CCN(c4ccccc4)CC3)c(F)cc2c1=O` [Example 2, 1-cyclopropyl-6-fluoro-8-difluoromethoxy-7-(4-phenylpiperazin-1-yl)-1,4-dihydro-4-oxoquinoline-3-carboxylic acid]: in the data set on HIV [1], the “S.I. (selective index, CC50 /EC50)” value was 100 and the midpoint of the response, the EC50, lay at 0.03 µg/mL (≈ 0.0634 µM).
As to `O=C(O)c1cn(C2CC2)c2c(OC(F)F)c(N3CCN(c4ccc(F)cc4)CC3)c(F)cc2c1=O` [Example 6], in the data set with HIV [1], the “S.I. (selective index, CC50 /EC50)” value turned out to be 34 and the concentration for a half-maximal effect (EC50) was 0.02 µg/mL (≈ 0.0407 µM).
As to `COc1cccc(N2CCN(c3c(F)cc4c(=O)c(C(=O)O)cn(C5CC5)c4c3OC(F)F)CC2)c1` [Example 7], in the data set on HIV [1], the “S.I. (selective index, CC50 /EC50)” value is listed as 113 and the EC50 was determined as 0.22 µg/mL (≈ 0.437 µM).
Regarding `COc1ccc(N2CCN(c3c(F)cc4c(=O)c(C(=O)O)cn(C5CC5)c4c3OC(F)F)CC2)cc1` [Example 8, 1-cyclopropyl-6-fluoro-8-difluoromethoxy-7-[4-(4-methoxyphenyl)piperazin-1-yl]-1,4-dihydro-4-oxoquinoline-3carboxylic acid], in the data set on HIV [1], the “S.I. (selective index, CC50 /EC50)” value stood at 500 and it took 0.1 µg/mL (≈ 0.199 µM) to reach a half-maximal effect (EC50).
The like results for `O=C(O)c1cn(C2CC2)c2c(OC(F)F)c(N3CCN(c4ncccc4[N+](=O)[O-])CC3)c(F)cc2c1=O` [Example 17] were, in that order, 250 and 0.5 µg/mL (≈ 0.963 µM).
As to `O=C(O)c1cn(C2CC2)c2c(OC(F)F)c(N3CCN(c4ncccn4)CC3)c(F)cc2c1=O` [Example 18, 1-cyclopropyl-6-fluoro-8-difluoromethoxy-7-[4-(2-pyrimidinyl)piperazin-1-yl]-1,4-dihydro-4-oxoquinoline-3-carboxylic acid], in the data set with HIV [1], the “S.I. (selective index, CC50 /EC50)” value is reported as 121 and the concentration giving a half-maximal response (EC50) was 0.07 µg/mL (≈ 0.147 µM).
`O=C(O)c1cn(C2CC2)c2c(OC(F)F)c(N3CCN(c4ncc(Cl)cn4)CC3)c(F)cc2c1=O` [Example 19]: in the data set with HIV [1], the “S.I. (selective index, CC50 /EC50)” value is reported as 57 and a half-maximal response (EC50) required 0.07 µg/mL (≈ 0.137 µM).
Turning to `O=C(O)c1cn(C2CC2)c2c(OC(F)F)c(N3CCN(c4nc5ccccc5o4)CC3)c(F)cc2c1=O` [Example 21], in the data set with HIV [1], the “S.I. (selective index, CC50 /EC50)” value is recorded as 16 and the 50% effective concentration (EC50) came out at 0.037 µg/mL (≈ 0.0719 µM).
For the compound `COc1ccccc1N1CCN(c2c(F)cc3c(=O)c(C(=O)O)cn(C)c3c2OC(F)F)CC1` [Example 23, 6-fluoro-8-difluoromethoxy-1-methyl-7-[4-(2-methoxyphenyl)piperazin-1-yl]-1,4-dihydro-4-oxoquinoline-3-carboxylic acid], in the data set on HIV [1], the “S.I. (selective index, CC50 /EC50)” value was determined as 309 and the EC50 amounted to 0.021 µg/mL (≈ 0.044 µM).
With `Cn1cc(C(=O)O)c(=O)c2cc(F)c(N3CCN(c4ncccn4)CC3)c(OC(F)F)c21` [Example 24, 6-fluoro-8-difluoromethoxy-1-methyl-7-[4-(2-pyrimidinyl)piperazin-1-yl]-1,4-dihydro-4-oxoquinoline-3-carboxylic acid], in the data set on HIV [1], the “S.I. (selective index, CC50 /EC50)” value is on record as 257 and it took 0.07 µg/mL (≈ 0.156 µM) to reach a half-maximal effect (EC50).
On to `COc1ccccc1N1CCN(c2c(F)c(N)c3c(=O)c(C(=O)O)cn(C(C)C)c3c2OC(F)F)CC1` [Example 29], for which, in the data set on HIV [1], the “S.I. (selective index, CC50 /EC50)” value is listed as 22 and the EC50 stood at 0.05 µg/mL (≈ 0.0961 µM).
For `CCn1cc(C(=O)O)c(=O)c2cc(F)c(N3CCN(c4cnccn4)CC3)c(OC(F)F)c21` [Example 37], in the data set with HIV [1], the “S.I. (selective index, CC50 /EC50)” value is over 109 and a half-maximal effect (EC50) was put at 0.23 µg/mL (≈ 0.496 µM).
Consider `COc1ccccc1N1CCN(c2c(F)cc3c(=O)c(C(=O)O)cn(CCF)c3c2OC(F)F)CC1` [Example 38], for which, in the data set on HIV [1], the “S.I. (selective index, CC50 /EC50)” value is listed as 79 and the half-maximal effective concentration (EC50) was 0.07 µg/mL (≈ 0.137 µM).
As to `COc1ccccc1N1CCN(c2c(F)cc3c(=O)c(C(=O)O)cn(CCOC(C)=O)c3c2OC(F)F)CC1` [Example 46, 1-(2-acetoxyethyl)-6-fluoro-8-difluoromethoxy-7-[4-(2-methoxyphenyl)piperazin-1-yl]-1,4-dihydro-4-oxoquinoline-3-carboxylic acid], in the data set on HIV [1], the “S.I. (selective index, CC50 /EC50)” value came out at 155 and the EC50 amounted to 0.06 µg/mL (≈ 0.109 µM).
On the same counts, the results for `CNn1cc(C(=O)O)c(=O)c2cc(F)c(N3CCN(c4ncccn4)CC3)c(OC(F)F)c21` [Example 53] are over 83 and 0.3 µg/mL (≈ 0.646 µM).
The like results for `CCn1cc(C(=O)O)c(=O)c2cc(F)c(N3CCN(c4ccccc4OC)CC3)c(OC(F)F)c21` [Example 63, 1-ethyl-6-fluoro-8-difluoromethoxy-7-[4-(2-methoxyphenyl)piperazin-1-yl]-1,4-dihydro-4-oxoquinoline-3carboxylic acid] were, in that order, 1000 and 0.01 µg/mL (≈ 0.0203 µM).
As to `CCn1cc(C(=O)O)c(=O)c2cc(F)c(N3CCN(c4ncccn4)CC3)c(OC(F)F)c21` [Example 67, 1-ethyl-6-fluoro-8-difluoromethoxy-7-[4-(2-pyrimidinyl)piperazin-1-yl]-1,4-dihydro-4-oxoquinoline-3-carboxylic acid], in the data set on HIV [1], the “S.I. (selective index, CC50 /EC50)” value is on record as over 500 and the EC50 was 0.08 µg/mL (≈ 0.173 µM).
The like results for `COc1ccccc1N1CCN(c2c(F)cc3c(=O)c(C(=O)O)cn(CCF)c3c2OC)CC1` [Example 70] were, in that order, 20 and 0.5 µg/mL (≈ 1.06 µM).
For the compound `CC1COc2c(N3CCN(c4ccccn4)CC3)c(F)cc3c(=O)c(C(=O)O)cn1c23` (stereo not shown) [Example 85], in the data set on HIV [1], the “S.I. (selective index, CC50 /EC50)” value was determined as 17 and the 50% effective concentration (EC50) was found to be 1 µg/mL (≈ 2.36 µM).
The like results for `O=C(O)c1cn2c3c(c(N4CCN(c5ncccn5)CC4)c(F)cc3c1=O)OCC2CF` (stereo not shown) [Example 87, 9-fluoro-3-fluoromethyl-10-[4-(2-pyrimidinyl)piperazin-1yl]-2,3-dihydro-7-oxo-7H -pyrido[1,2,3-de][1,4]benzoxazine-6-carboxylic acid] were, in that order, over 512 and 0.074 µg/mL (≈ 0.167 µM).
On to `CCn1cc(C(=O)O)c(=O)c2cc(F)c(N3CCN(c4ncccn4)CC3)nc21` [Example 92], for which, in the data set on HIV [1], the “S.I. (selective index, CC50 /EC50)” value turned out to be 31 and the half-maximal effective concentration (EC50) was 0.8 µg/mL (≈ 2.01 µM).
`CCn1cc(C(=O)O)c(=O)c2cc(F)c(N3CCN(c4ncccn4)C(C)C3)c(OC(F)F)c21` (stereo not shown) [Example 94, 1-ethyl-6-fluoro-8-difluoromethoxy-7-[3-methyl-4-(2-pyrimidinyl)piperazin-1-yl]-1,4-dihydro-4-oxoquinoline-3-carboxylic acid]: in the data set with HIV [1], the “S.I. (selective index, CC50 /EC50)” value is reported as 21 and a half-maximal response (EC50) required 0.5 µg/mL (≈ 1.05 µM).
Regarding `CC(C)(C)n1cc(C(=O)O)c(=O)c2cc(F)c(N3CCN(c4ncccn4)CC3)cc21` [Example 95], in the data set with HIV [1], the “S.I. (selective index, CC50 /EC50)” value is given as over 62 and the EC50 came to 0.4 µg/mL (≈ 0.94 µM).
Take `CCn1cc(C(=O)O)c(=O)c2ccc(N3CCN(c4ncccn4)CC3)c(OC(F)F)c21` [Example 99, 1-ethyl-8-difluoromethoxy-7-[4-(2-pyrimidinyl)piperazin-1-yl]-1,4-dihydro-4-oxoquinoline-3-carboxylic acid]: in the data set with HIV [1], the “S.I. (selective index, CC50 /EC50)” value is on record as over 25 and it took 1 µg/mL (≈ 2.25 µM) to reach a half-maximal effect (EC50).
Turning to `CC1Sc2c(C(=O)O)c(=O)c3cc(F)c(N4CCN(c5ncccn5)CC4)cc3n21` (stereo not shown) [Example 100, 6-fluoro-1-methyl-4-oxo-7-[4-(2-pyrimidinyl)piperazin-1-yl]-1H, 4H-[1,3]thiazeto[3,2-a]quinoline-3-carboxylic acid], in the data set on HIV [1], the “S.I. (selective index, CC50 /EC50)” value came to 9 and the concentration for a half-maximal effect (EC50) was 0.4 µg/mL (≈ 0.936 µM).
As to `CCn1cc(C(=O)O)c(=O)c2cc(F)c(N3CCNC(C)C3)c(F)c21` (stereo not shown) [Lomefloxacin, reference compound], in the data set on HIV [1] (Pauwel method), the “anti-HIV activity (in words)” value is listed as “little or no anti-HIV activity”. Besides, the “anti-HIV activity (reported)” value with HIV [2] is “anti-HIV activity”.
As to `CCn1cc(C(=O)O)c(=O)c2cc(F)c(N3CCNCC3)cc21` [Norfloxacin, reference compound], the “anti-HIV activity (in words)” value with HIV [1] (Pauwel method) is “little or no anti-HIV activity”. For the same compound, the “anti-HIV activity (reported)” value in the data set with HIV [2] is given as “anti-HIV activity”.
